Measured values reported in patent EP1674457B1, “Derivatives of squaric acid with anti-proliferative activity” (GPC Biotech AG, priority 2004, dated 2006).

Assays:
[1] = tested on: A2780; assay: SRB assay, inhibition of tumor cell growth at 1 µM (Example 61); type: cell-based, Human; conditions: Homo sapiens, 48 hours
Experimental: (§1) 3,000-15,000 cells/well were exposed to the test compounds at a concentration of 1 µM for 48 hours, and cytotoxicty was measured using the SRB assay according to Shekan et al (J Natl Cancer Inst (1990) 82, 1107-112). Briefly, cells were plated in 96 well dishes 24 hours prior to compound addition. The assay was terminated with the addition of cold TCA to a final concentration of 10% and the plates were incubated for one hour at 4°C. The plates were then washed 5 times with water and 100µl of a Sulforhodamine B solution (4%) was added to each well. The plate was then incubated for 10 minutes at room temperature before removal of unbound dye by washing with 1% acetic acid. The bound dye was solubilized with 10 mM Trizma base and the absorbance read at OD570. Inhibitory activity of the compounds was calculated as % inhibition compared to cells treated with the solvent (DMSO). Table 2 represents the growth inhibitory activity of certain compunds of the invention across a number of tumor cell lines.

[2] = tested on: A-549; assay: as above; type: cell-based; conditions: Homo sapiens, A549, 48 hours
Experimental: as §1

[3] = tested on: HCT-116; assay: as above; type: cell-based; conditions: Homo sapiens, 48 hours
Experimental: as §1

[4] = tested on: MCF7; assay: as above; type: cell-based; conditions: Homo sapiens, 48 hours
Experimental: as §1

[5] = tested on: PC-3; assay: as above; type: cell-based; conditions: Homo sapiens, 48 hours
Experimental: as §1

[6] = tested on: SW-620; assay: as above; type: cell-based; conditions: Homo sapiens, 48 hours
Experimental: as §1

[7] = tested on: A-549; assay: IC50 determination by SRB assay (Example 62); type: cell-based; conditions: Homo sapiens, A549
Experimental: as §1
(§2) The assay was performed similar to example 61. However, test compounds were added at various concentrations, such as from 0.001 to about 0.1 µM, from 0.1 to about 10 µM, or from 1 to about 10 µM, as the need may be, in order to estimate the IC50 values. IC50 values were determined by plotting the percentage inhibitory activity for each concentration, fitting a curve using appropriate software and estimating the concentration at which 50% inhibition of growth would occur.

[8] = tested on: HCT-116; assay: IC50 determination by SRB assay (Example 62); type: cell-based; conditions: Homo sapiens, HCT-116; HCY-116
Experimental: as §1, §2

[9] = tested on: MCF7; assay: IC50 determination by SRB assay (Example 62); type: cell-based; conditions: Homo sapiens
Experimental: as §1, §2

[10] = tested on: SW-620; assay: IC50 determination by SRB assay (Example 62); type: cell-based; conditions: Homo sapiens
Experimental: as §1, §2

[11] = tested on: A2780; assay: IC50 determination by SRB assay (Example 62); type: cell-based; conditions: Homo sapiens
Experimental: as §1, §2

[12] = tested on: PC-3; assay: IC50 determination by SRB assay (Example 62); type: cell-based; conditions: Homo sapiens
Experimental: as §1, §2

Row | Compound | inhibition at 1 µM [1] | inhibition at 1 µM [2] | inhibition at 1 µM [3] | inhibition at 1 µM [4] | inhibition at 1 µM [5] | inhibition at 1 µM [6] | IC50 [7] | IC50 [8] | IC50 [9] | IC50 [10] | IC50 [11] | IC50 [12]
1 | O=c1c(NCCCCCCOc2ccccc2)c(Nc2cccnc2)c1=O [SQ-3] | > 80% | > 50% | > 80% | > 5% | > 50% | > 50% | < 500 nM | < 100 nM | < 10000 nM | < 500 nM | – | –
2 | Cc1ccc(OCCCCCCNc2c(Nc3cccnc3)c(=O)c2=O)cc1 [SQ-4] | > 80% | > 50% | > 80% | – | > 50% | > 50% | < 500 nM | < 100 nM | < 10000 nM | < 2000 nM | – | –
3 | O=c1c(NCCc2ccc(Oc3ccc(Cl)cc3)cc2)c(Nc2cccnc2)c1=O [SQ-6, 3-{2-[4-(4-Chlorophenoxy)-phenyl]-ethylamino}-4-(pyridin-3-yl-amino)-cyclobut-3-ene-1,2-dione] | – | – | – | – | – | – | – | < 100 nM | – | – | < 20 nM | < 500 nM
4 | O=c1c(NCCCCCCOc2ccccc2)c(Nc2ccncc2)c1=O [SQ-12, 3-(6-Phenoxyhexylamino)-4-(pyridin-4y1-amino)-3-cyclobutene-1,2-dione] | > 80% | > 50% | > 80% | > 20% | > 50% | > 20% | < 2000 nM | < 20 nM | < 10000 nM | – | < 20 nM | –
5 | O=c1c(NCCCCCCOc2cccnc2)c(Nc2ccncc2)c1=O [SQ-16, 3-(Pyridin-4-ylamino)-4-[6-(pyridin-3-yloxy)-hexylamino]-cyclobut-3-ene-1,2-dione] | > 80% | > 20% | > 80% | > 5% | > 20% | > 20% | – | < 500 nM | – | – | < 100 nM | < 500 nM
6 | O=c1c(NCCc2ccc(Oc3ccc(Cl)cc3)cc2)c(Nc2ccncc2)c1=O [SQ-20, 3-{2-[4-(4-Chlorophenoxy)-phenyl]-ethylamino}-4-(pyridin-4-yl-amino)-cyclobut-3-ene-1,2-dione] | – | – | – | – | – | – | – | < 100 nM | – | – | < 20 nM | < 500 nM
7 | O=c1c(NCCCCCCCc2ccccc2)c(Nc2ccncc2)c1=O [SQ-22, 3-(7-Phenylheptylamino)-4-(pyridin-4-yl-amino)-cyclobut-3-ene-1,2-dione] | > 80% | > 50% | > 80% | > 20% | > 50% | > 50% | – | < 20 nM | – | – | < 20 nM | < 20 nM
8 | O=c1c(NCCCCCCOc2ccc(OCCN3CCOCC3)cc2)c(Nc2ccncc2)c1=O [SQ-23, 3-[6-(4-(2-Morpholin-4-yl-ethoxy)-phenoxy)-hexylamino]-4-(pyridin-4-yl-amino)-cyclobut-3-ene-1,2-dione] | > 80% | > 50% | > 80% | – | > 50% | > 20% | < 20 nM | < 20 nM | < 500 nM | – | < 20 nM | < 20 nM
9 | O=c1c(NCCCCCCOc2ccc(OCCN3CCOCC3)cc2)c(Nc2cccnc2)c1=O [SQ-24, 3-[6-(4-(2-Morpholin-4-yl-ethoxy)-phenoxy)-hexylamino]-4-(pyridin-3-yl-amino)-cyclobut-3-ene-1,2-dione] | > 80% | > 50% | > 80% | > 20% | > 50% | > 20% | < 100 nM | < 20 nM | – | < 2000 nM | < 20 nM | < 100 nM
10 | O=c1c(NCCCCCCSc2ccc(Cl)cc2)c(Nc2ccncc2)c1=O [SQ-27, 3-[6-(4-Chlorophenylsulfanyl)-hexylamino]-4-(pyridin-4-yl-amino)-cyclobut-3-ene-1,2-dione] | > 80% | > 50% | > 80% | > 20% | > 50% | > 20% | < 2000 nM | < 100 nM | – | < 500 nM | – | –
11 | O=c1c(NCc2ccc(COc3ccc(Cl)cc3)cc2)c(Nc2cccnc2)c1=O [SQ-32, 3-[4-(4-Chlorophenoxymethyl)-benzylamino]-4-(pyridin-3-yl-amino)-cyclobut-3-ene-1,2-dione] | > 80% | > 20% | > 80% | > 20% | > 50% | > 5% | – | < 100 nM | > 10000 nM | > 10000 nM | < 100 nM | –
12 | O=c1c(NCc2cccc(COc3ccc(Cl)cc3)c2)c(Nc2cccnc2)c1=O [SQ-35, 3-[3-(4-Chlorophenoxymethyl)-benzylamino]-4-(pyridin-3-yl-amino)-cyclobut-3-ene-1,2-dione] | – | – | – | – | – | – | – | < 10000 nM | – | – | < 10000 nM | > 10000 nM
13 | O=c1c(NCCC2CCN(Cc3ccccc3)CC2)c(Nc2cccnc2)c1=O [SQ-37, 3-[2-(1-Benzylpiperidin-4-yl)ethylamino]-4-(pyridin-3-yl-amino)-cyclobut-3-ene-1,2-dione] | – | – | – | – | – | – | – | < 2000 nM | – | – | < 2000 nM | < 10000 nM
14 | O=c1c(NCCC2CCN(Cc3ccccc3)CC2)c(Nc2ccncc2)c1=O [SQ-38, 3-[2-(1-Benzylpiperidin-4-yl)-ethylamino]-4-(pyridin4-yl-amino)-cyclobut-3-ene-1,2-dione] | – | – | – | – | – | – | – | < 10000 nM | – | – | < 10000 nM | < 10000 nM
15 | O=c1c(NCCCCCCOc2ccc(CN3CCOCC3)cc2)c(Nc2cccnc2)c1=O [SQ-39, 3-(6-[4-(Morpholinomethyl)-phenoxy]-hexylamino)-4-(pyridin-3-yl-amino)-3-cyclobutene-1,2-dione] | > 80% | > 50% | > 80% | > 5% | > 20% | > 20% | – | < 20 nM | – | – | < 20 nM | < 100 nM
